Data published in US8765728B2, “[1,5]-diazocin derivatives” (MelliTech, priority 2009, dated 2014).

The compounds below were run on Min6 cell (assay: Insulin secretion response of beta cell line to formula I compounds (insulin ELISA)). Conditions: rank according to % increase versus control at most effective dose.
Assay type: cell-based
Summary of the method: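 After compound or vehicle exposure, Min6 cells were held 2 h in glucose-free medium and preincubated 30 min at 37° C in glucose-free KRBH (pH 7.4, 0.1% BSA). They were then incubated 30 min at 37° C in KRBH with varying glucose. Secreted insulin and acid-ethanol-extracted intracellular insulin were measured by ELISA.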

Structure (SMILES) | Insulin secretion (Min6 cell) Range 1 to 5
O=C(c1ncoc1-c1ccccc1)N1CCC(=O)N(C2CC2)Cc2cccnc21 [Compound 103, 5-cyclopropyl-1-(5-phenyloxazole-4-carbonyl)-2,3,5,6-tetrahydropyrido[2,3-b][1,5]diazocin-4(1H)-one] | 2 (2: 110-120% of control)
Cc1cc(C(=O)N2CCC(=O)N(C3CC3)Cc3cccnc32)no1 [Compound 104, 5-cyclopropyl-1-(5-methylisoxazole-3-carbonyl)-2,3,5,6-tetrahydropyrido[2,3-b][1,5]diazocin-4(1H)-one] | 4 (4: 140-170% of control)
Cc1cc(C(=O)N2CCC(=O)N(C3CC3)Cc3cccnc32)n(C)n1 [Compound 105, 5-cyclopropyl-1-(1,3-dimethyl-1H-pyrazole-5-carbonyl)-2,3,5,6-tetrahydropyrido[2,3-b][1,5]diazocin-4(1H)-one] | 3 (3: 120-140% of control)
Cc1noc(C)c1C(=O)N1CCC(=O)N(C2CC2)Cc2cccnc21 [Compound 106, 5-cyclopropyl-1-(3,5-dimethylisoxazole-4-carbonyl)-2,3,5,6-tetrahydropyrido[2,3-b][1,5]diazocin-4(1H)-one] | 1 (1: 90-110% of control)
O=C(c1cnccn1)N1CCC(=O)N(C2CC2)Cc2cccnc21 [Compound 107, 5-cyclopropyl-1-(pyrazine-2-carbonyl)-2,3,5,6-tetrahydropyrido[2,3-b][1,5]diazocin-4(1H)-one] | 2 (2: 110-120% of control)
O=C1CCNc2ccc(OC(F)F)cc2CN1C1CC1 [Compound 108, 5-cyclopropyl-8-(difluoromethoxy)-2,3,5,6-tetrahydrobenzo[b][1,5]diazocin-4(1H)-one] | 2 (2: 110-120% of control)
COc1ccc2c(c1)CN(C1CC1)C(=O)CCN2C[C@@H](O)COc1cccc(F)c1 [Compound 109, (R)-5-cyclopropyl-1-(3-(3-fluorophenoxy)-2-hydroxypropyl)-8-methoxy-2,3,5,6-tetrahydrobenzo[b][1,5]diazocin-4(1H)-one] | 3 (3: 120-140% of control)
COc1ccc2c(c1)CN(C1CC1)C(=O)CCN2C[C@H](O)COc1cccc(F)c1 [Compound 110, (S)-5-cyclopropyl-1-(3-(3-fluorophenoxy)-2-hydroxypropyl)-8-methoxy-2,3,5,6-tetrahydrobenzo[b][1,5]diazocin-4(1H)-one] | 1 (1: 90-110% of control)
O=C(c1ccno1)N1CCC(=O)N(C2CC2)Cc2cc(OC(F)F)ccc21 [Compound 111, 5-cyclopropyl-8-(difluoromethoxy)-1-(isoxazole-5-carbonyl)-2,3,5,6-tetrahydrobenzo[b][1,5]diazocin-4(1H)-one] | 1 (1: 90-110% of control)
O=C(c1ncoc1-c1ccccc1)N1CCC(=O)N(C2CC2)Cc2cc(OC(F)F)ccc21 [Compound 112, 5-cyclopropyl-8-(difluoromethoxy)-1-(5-phenyloxazole-4-carbonyl)-2,3,5,6-tetrahydrobenzo[b][1,5]diazocin-4(1H)-one] | 1 (1: 90-110% of control)
Cc1cc(C(=O)N2CCC(=O)N(C3CC3)Cc3cc(OC(F)F)ccc32)no1 [Compound 113, 5-cyclopropyl-8-(difluoromethoxy)-1-(5-methylisoxazole-3-carbonyl)-2,3,5,6-tetrahydrobenzo[b][1,5]diazocin-4(1H)-one] | 1 (1: 90-110% of control)
Cc1cc(C(=O)N2CCC(=O)N(C3CC3)Cc3cc(OC(F)F)ccc32)n(C)n1 [Compound 114, 5-cyclopropyl-8-(difluoromethoxy)-1-(1,3-dimethyl-1H-pyrazole-5-carbonyl)-2,3,5,6-tetrahydrobenzo[b][1,5]diazocin-4(1H)-one] | 1 (1: 90-110% of control)
Cc1noc(C)c1C(=O)N1CCC(=O)N(C2CC2)Cc2cc(OC(F)F)ccc21 [Compound 115, 5-cyclopropyl-8-(difluoromethoxy)-1-(3,5-dimethylisoxazole-4-carbonyl)-2,3,5,6-tetrahydrobenzo[b][1,5]diazocin-4(1H)-one] | 1 (1: 90-110% of control)
O=C(c1cnccn1)N1CCC(=O)N(C2CC2)Cc2cc(OC(F)F)ccc21 [Compound 116, 5-cyclopropyl-8-(difluoromethoxy)-1-(pyrazine-2-carbonyl)-2,3,5,6-tetrahydrobenzo[b][1,5]diazocin-4(1H)-one] | 2 (2: 110-120% of control)
O=C1CCN(C[C@@H](O)COc2cccc(F)c2)c2ccc(OC(F)F)cc2CN1C1CC1 [Compound 117, (R)-5-cyclopropyl-8-(difluoromethoxy)-1-(3-(3-fluorophenoxy)-2-hydroxypropyl)-2,3,5,6-tetrahydrobenzo[b][1,5]diazocin-4(1H)-one] | 1 (1: 90-110% of control)
O=C1CCN(C[C@H](O)COc2cccc(F)c2)c2ccc(OC(F)F)cc2CN1C1CC1 [Compound 118, (S)-5-cyclopropyl-8-(difluoromethoxy)-1-(3-(3-fluorophenoxy)-2-hydroxypropyl)-2,3,5,6-tetrahydrobenzo[b][1,5]diazocin-4(1H)-one] | 2 (2: 110-120% of control)

Structure (SMILES) | Insulin secretion (Min6 cell) Range 1 to 5
O=C1CCN(C[C@@H](O)COc2ccc(Cl)cc2)c2ccc(OC(F)F)cc2CN1C1CC1 [Compound 119, (R)-1-(3-(4-chlorophenoxy)-2-hydroxypropyl)-5-cyclopropyl-8-(difluoromethoxy)-2,3,5,6-tetrahydrobenzo[b][1,5]diazocin-4(1H)-one] | 3 (3: 120-140% of control)
O=C1CCN(C[C@H](O)COc2ccc(Cl)cc2)c2ccc(OC(F)F)cc2CN1C1CC1 [Compound 120, (S)-1-(3-(4-chlorophenoxy)-2-hydroxypropyl)-5-cyclopropyl-8-(difluoromethoxy)-2,3,5,6-tetrahydrobenzo[b][1,5]diazocin-4(1H)-one] | 1 (1: 90-110% of control)
COCC(=O)N1CCC(=O)N(C2CC2)Cc2cc(F)ccc21 [Compound 121, 5-cyclopropyl-8-fluoro-1-(2-methoxyacetyl)-2,3,5,6-tetrahydrobenzo[b][1,5]diazocin-4(1H)-one] | 1 (1: 90-110% of control)
O=C(COc1ccccc1)N1CCC(=O)N(C2CC2)Cc2cc(F)ccc21 [Compound 122, 5-cyclopropyl-8-fluoro-1-(2-phenoxyacetyl)-2,3,5,6-tetrahydrobenzo[b][1,5]diazocin-4(1H)-one] | 1 (1: 90-110% of control)
O=C(c1ccco1)N1CCC(=O)N(C2CC2)Cc2cc(F)ccc21 [Compound 123, 5-cyclopropyl-8-fluoro-1-(furan-2-carbonyl)-2,3,5,6-tetrahydrobenzo[b][1,5]diazocin-4(1H)-one] | 1 (1: 90-110% of control)
O=C1CCNc2ccc(OC(F)F)cc2CN1C1CC1 [Compound 124, 5-cyclopropyl-8-(difluoromethoxy)-2,3,5,6-tetrahydrobenzo[b][1,5]diazocin-4(1H)-one] | 1 (1: 90-110% of control)
Cn1cnc(S(=O)(=O)N2CCC(=O)N(C3CC3)Cc3c2ccc2c3OCCO2)c1 [Compound 125, 11-cyclopropyl-7-((1-methyl-1H-imidazol-4-yl)sulfonyl)-2,3,8,9,11,12-hexahydro-[1,4]dioxino[2′,3′:3,4]benzo[1,2-b][1,5]diazocin-10(7H)-one] | 1 (1: 90-110% of control)
O=C1CCN(C[C@@H](O)COc2ccc(Cl)cc2)c2ccc3c(c2CN1C1CC1)OCCO3 [Compound 126, (R)-7-(3-(4-chlorophenoxy)-2-hydroxypropyl)-11-cyclopropyl-2,3,8,9,11,12-hexahydro-[1,4]dioxino[2′,3′:3,4]benzo[1,2-b][1,5]diazocin-10(7H)-one] | 2 (2: 110-120% of control)
COc1ccc2c(c1OC(F)F)CN(C1CC1)C(=O)CCN2 [Compound 127, 5-cyclopropyl-7-(difluoromethoxy)-8-methoxy-2,3,5,6-tetrahydrobenzo[b][1,5]diazocin-4(1H)-one] | 1 (1: 90-110% of control)
O=C(c1cnccn1)N1CCC(=O)N(C2CC2)Cc2c1ccc1c2OCCO1 [Compound 128, 11-cyclopropyl-7-(pyrazine-2-carbonyl)-2,3,8,9,11,12-hexahydro-[1,4]dioxino[2′,3′:3,4]benzo[1,2-b][1,5]diazocin-10(7H)-one] | 1 (1: 90-110% of control)
COc1ccc2c(c1OC(F)F)CN(C1CC1)C(=O)CCN2C(=O)c1cnccn1 [Compound 129, 5-cyclopropyl-7-(difluoromethoxy)-8-methoxy-1-(pyrazine-2-carbonyl)-2,3,5,6-tetrahydrobenzo[b][1,5]diazocin-4(1H)-one] | 2 (2: 110-120% of control)
O=C(c1cnccn1)N1CCC(=O)N(C2CC2)Cc2cc(F)ccc21 [Compound 130, 5-cyclopropyl-8-fluoro-1-(pyrazine-2-carbonyl)-2,3,5,6-tetrahydrobenzo[b][1,5]diazocin-4(1H)-one] | 1 (1: 90-110% of control)
O=C(c1ccccn1)N1CCC(=O)N(C2CC2)Cc2cc(Cl)ccc21 [Compound 131, 8-chloro-5-cyclopropyl-1-picolinoyl-2,3,5,6-tetrahydrobenzo[b][1,5]diazocin-4(1H)-one] | 1 (1: 90-110% of control)
O=C(c1ccccn1)N1CCC(=O)N(C2CC2)Cc2c1ccc1c2OCCO1 [Compound 132, 11-cyclopropyl-7-picolinoyl-2,3,8,9,11,12-hexahydro-[1,4]dioxino[2′,3′:3,4]benzo[1,2-b][1,5]diazocin-10(7H)-one] | 1 (1: 90-110% of control)
O=C(c1cnccn1)N1CCC(=O)N(C2CC2)Cc2cc(Cl)ccc21 [Compound 133, 8-chloro-5-cyclopropyl-1-(pyrazine-2-carbonyl)-2,3,5,6-tetrahydrobenzo[b][1,5]diazocin-4(1H)-one] | 2 (2: 110-120% of control)
